Reference: patent publication US20260297080A1, “BICYCLIC COMPOUNDS AS CDK INHIBITORS” (BeOne Medicines I GmbH, priority 2022, published 2026)
pIC50: −log10 of the molar value.

Experiments:
[1] = molecular target: CDK2/Cyclin E1 (Homo sapiens, UniProt P24941); assay: CDK2/Cyclin E1 Biochemical Assay (TR-FRET), 0.060 mM ATP; conditions: 0.15 μM Rb (Ser780)-biotin substrate, pH7.0, 60 min preincubation, 120 min reaction, room temperature
Summary of the method: (§1)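 Percent inhibition was derived from the 665 nm/620 nm TR-FRET ratio after a 120-minute room-temperature reaction on 0.15 μM Rb (Ser780)-biotin, preceded by 60-minute enzyme–compound preincubation. IC50 came from four-parameter logistic fitting.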

[2] = molecular target: CDK1/Cyclin B1 (Homo sapiens, UniProt P06493); assay: CDK1/Cyclin B1 Biochemical Assay (TR-FRET), 0.015 mM ATP; conditions: 0.15 μM Rb (Ser780)-biotin substrate, pH7.0, 60 min preincubation, 120 min reaction, room temperature
Summary of the method: as §1

Chain of CDK1/Cyclin B1 (P06493 whole entry): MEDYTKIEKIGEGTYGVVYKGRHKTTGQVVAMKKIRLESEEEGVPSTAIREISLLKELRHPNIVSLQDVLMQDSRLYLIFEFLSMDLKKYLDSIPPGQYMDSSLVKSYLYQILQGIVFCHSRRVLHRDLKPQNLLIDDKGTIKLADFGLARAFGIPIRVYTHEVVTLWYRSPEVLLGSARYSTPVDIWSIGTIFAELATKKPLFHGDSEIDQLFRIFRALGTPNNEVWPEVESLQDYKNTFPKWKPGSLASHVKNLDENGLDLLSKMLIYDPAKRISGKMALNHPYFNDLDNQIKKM
Chain of CDK1/Cyclin B1 (P14635 whole entry partner): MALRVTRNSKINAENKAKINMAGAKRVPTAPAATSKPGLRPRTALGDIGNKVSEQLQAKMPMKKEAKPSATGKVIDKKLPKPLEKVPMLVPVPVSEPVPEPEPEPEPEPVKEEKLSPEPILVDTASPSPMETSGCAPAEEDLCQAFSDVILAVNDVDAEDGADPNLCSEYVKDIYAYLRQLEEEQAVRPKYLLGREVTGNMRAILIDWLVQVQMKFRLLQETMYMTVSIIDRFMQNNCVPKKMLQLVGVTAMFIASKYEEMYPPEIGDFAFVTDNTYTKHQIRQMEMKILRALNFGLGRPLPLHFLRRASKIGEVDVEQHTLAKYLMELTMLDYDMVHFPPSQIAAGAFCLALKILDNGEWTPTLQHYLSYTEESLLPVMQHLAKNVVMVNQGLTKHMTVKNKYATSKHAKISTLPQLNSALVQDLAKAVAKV

CN1Cc2c(ccc(Nc3cc([C@@H]4CC[C@H](OC(=O)N[C@H]5CC[C@@](C)(O)CC5)C4)[nH]n3)c2F)S1(=O)=O (relative stereo) [Example 169, cis-3-(3-((4-fluoro-2-methyl-1,1-dioxido-2,3-dihydrobenzo[d]isothiazol-5-yl)amino)-1H-pyrazol-5-yl)cyclopentyl((1s,4s)-4-hydroxy-4-methylcyclohexyl)carbamate]
pIC50 [1]: 8.13
pIC50 [2]: 6.33

CCNC(=O)O[C@H]1CC[C@@H](c2cc(Nc3ccc4c(c3F)CNS4(=O)=O)n[nH]2)C1 (relative stereo) [Example 141, cis-3-(3-((4-fluoro-1,1-dioxido-2,3-dihydrobenzo[d]isothiazol-5-yl)amino)-1H-pyrazol-5-yl)cyclopentyl ethylcarbamate]
pIC50 [1]: 8.10
pIC50 [2]: 6.80

CC(C)NC(=O)O[C@H]1CC[C@@H](c2cc(Nc3ccc4c(c3)CS(=O)(=O)N4CCO)n[nH]2)C1 (single isomer, unassigned) [Example 219a, cis-3-(3-((1-(2-hydroxyethyl)-2,2-dioxido-1,3-dihydrobenzo[c]isothiazol-5-yl)amino)-1H-pyrazol-5-yl)cyclopentyl isopropylcarbamate]
pIC50 [1]: 8.27
pIC50 [2]: 7.34

CC(C)NC(=O)O[C@H]1CC[C@@H](c2cc(Nc3ccc4c(c3)CS(=O)(=O)N4CCC3CCOCC3)n[nH]2)C1 (relative stereo) [Example 217, cis-3-(3-((2,2-dioxido-1-(2-(tetrahydro-2H-pyran-4-yl)ethyl)-1,3-dihydrobenzo[c]isothiazol-5-yl)amino)-1H-pyrazol-5-yl)cyclopentyl isopropylcarbamate]
pIC50 [1]: 8.06
pIC50 [2]: 6.90

CC(C)NC(=O)O[C@H]1CC[C@@H](c2cc(Nc3ccc4c(c3F)CN(C3CCCC3)S4(=O)=O)n[nH]2)C1 (relative stereo) [Example 68, cis-3-(3-((2-cyclopentyl-4-fluoro-1,1-dioxido-2,3-dihydrobenzo[d]isothiazol-5-yl)amino-1H-pyrazol-5-yl)cyclopentyl isopropylcarbamate]
pIC50 [1]: 7.82
pIC50 [2]: 5.93

COCC(C)NC(=O)O[C@H]1CC[C@@H](c2cc(Nc3ccc4c(c3F)CNS4(=O)=O)n[nH]2)C1 (relative stereo) [Example 161, cis-3-(3-((4-fluoro-1,1-dioxido-2,3-dihydrobenzo[d]isothiazol-5-yl)amino)-1H-pyrazol-5-yl)cyclopentyl(1-methoxypropan-2-yl)carbamate]
pIC50 [1]: 8.19
pIC50 [2]: 6.48

CN1Cc2c(ccc(Nc3cc([C@@H]4CC[C@H](OC(=O)NCC(C)(C)O)C4)[nH]n3)c2F)S1(=O)=O (relative stereo) [Example 168, cis-3-(3-((4-fluoro-2-methyl-1,1-dioxido-2,3-dihydrobenzo[d]isothiazol-5-yl)amino)-1H-pyrazol-5-yl)cyclopentyl(2-hydroxy-2-methylpropyl)carbamate]
pIC50 [1]: 7.92
pIC50 [2]: 6.26

CNC(=O)O[C@H]1CC[C@@H](c2cc(Nc3ccc4c(c3F)CNS4(=O)=O)n[nH]2)C1 (relative stereo) [Example 153, cis-3-(3-((4-fluoro-1,1-dioxido-2,3-dihydrobenzo[d]isothiazol-5-yl)amino)-1H-pyrazol-5-yl)cyclopentyl methylcarbamate]
pIC50 [1]: 7.04
pIC50 [2]: 5.95

CC[C@H](C)NC(=O)O[C@H]1CC[C@@H](c2cc(Nc3ccc4c(c3F)CS(=O)(=O)N4CC(F)(F)F)n[nH]2)C1 (single isomer, unassigned) [Example 265b]
pIC50 [1]: 8.62
pIC50 [2]: 7.59

COCC(C)NC(=O)O[C@H]1CC[C@@H](c2cc(Nc3ccc4c(c3)CS(=O)(=O)N4)n[nH]2)C1 (relative stereo) [Example 197, cis-3-(3-((2,2-dioxido-1,3-dihydrobenzo[c]isothiazol-5-yl)amino)-1H-pyrazol-5-yl)cyclopentyl(1-methoxypropan-2-yl)carbamate]
pIC50 [1]: 7.92
pIC50 [2]: 6.92

CC(C)NC(=O)O[C@H]1CC[C@@H](c2cc(Nc3ccc4c(c3)CCNS4(=O)=O)n[nH]2)C1 (relative stereo) [Example 172, cis-3-(3-((1,1-dioxido-3,4-dihydro-2H-benzo[e][1,2]thiazin-6-yl)amino)-1H-pyrazol-5-yl)cyclopentyl isopropylcarbamate]
pIC50 [1]: 9.15
pIC50 [2]: 7.85

CC[C@H](C)NC(=O)O[C@H]1CC[C@@H](c2cc(Nc3ccc4c(c3)CS(=O)(=O)N4)n[nH]2)C1 (single isomer, unassigned) [Example 323b]
pIC50 [1]: 8.21
pIC50 [2]: 7.77

CN1c2ccc(Nc3cc([C@@H]4CC[C@H](OC(=O)NCCC(F)(F)F)C4)[nH]n3)cc2CS1(=O)=O (relative stereo) [Example 230, cis-3-(3-((1-methyl-2,2-dioxido-1,3-dihydrobenzo[c]isothiazol-5-yl)amino)-1H-pyrazol-5-yl)cyclopentyl(3,3,3-trifluoropropyl)carbamate]
pIC50 [1]: 8.01
pIC50 [2]: 7.11

CC(C)NC(=O)O[C@H]1CC[C@@H](c2cc(Nc3ccc4c(c3F)CN(C3CCC3O)S4(=O)=O)n[nH]2)C1 (single isomer, unassigned) [Example 103, cis-3-(3-((4-fluoro-2-(2-hydroxycyclobutyl)-1,1-dioxido-2,3-dihydrobenzo[d]isothiazol-5-yl)amino)-1H-pyrazol-5-yl)cyclopentyl isopropylcarbamate]
pIC50 [1]: 8.42
pIC50 [2]: 6.46

CC(C)NC(=O)O[C@H]1CC[C@@H](c2cc(Nc3ccc4c(c3)C3(CC3)S(=O)(=O)N4C)n[nH]2)C1 (relative stereo) [Example 201, cis-3-(3-((1-methyl-2,2-dioxido-1H-spiro[benzo[c]isothiazole-3,l′-cyclopropan]-5-yl)amino-1H-pyrazol-5-yl)cyclopentyl isopropylcarbamate]
pIC50 [1]: 7.96
pIC50 [2]: 6.89

CCCNC(=O)O[C@H]1CC[C@@H](c2cc(Nc3ccc4c(c3F)CS(=O)(=O)N4C3COC3)n[nH]2)C1 (single isomer, unassigned) [Example 260a, cis-3-(3-((4-fluoro-1-(oxetan-3-yl)-2,2-dioxido-1,3-dihydrobenzo[c]isothiazol-5-yl)amino)-1H-pyrazol-5-yl)cyclopentyl propylcarbamate]
pIC50 [1]: 8.23
pIC50 [2]: 6.57

CC1(NC(=O)O[C@H]2CC[C@@H](c3cc(Nc4ccc5c(c4F)CN(CCO)S5(=O)=O)n[nH]3)C2)CC1 (single isomer, unassigned) [Example 128a, cis-3-(3-((4-fluoro-2-(2-hydroxyethyl)-1,1-dioxido-2,3-dihydrobenzo[d]isothiazol-5-yl)amino)-1H-pyrazol-5-yl)cyclopentyl(1-methylcyclopropyl)carbamate]
pIC50 [1]: 8.57
pIC50 [2]: 6.72

[2H]C([2H])([2H])N1c2c(F)cc(Nc3cc([C@@H]4CC[C@H](OC(=O)NC5(C)CC5)C4)[nH]n3)cc2CS1(=O)=O (single isomer, unassigned) [Example 291a, cis-3-(3-((7-fluoro-1-(methyl-d3)-2,2-dioxido-1,3-dihydrobenzo[c]isothiazol-5-yl)amino)-1H-pyrazol-5-yl)cyclopentyl(1-methylcyclopropyl)carbamate]
pIC50 [1]: 8.70
pIC50 [2]: 7.12

CC1(NC(=O)O[C@H]2CC[C@@H](c3cc(Nc4ccc5c(c4)CCS(=O)(=O)N5)n[nH]3)C2)CC1 (single isomer, unassigned) [Example 249a, cis-3-(3-((2,2-dioxido-3,4-dihydro-1H-benzo[c][1,2]thiazin-6-yl)amino)-1H-pyrazol-5-yl)cyclopentyl(1-methylcyclopropyl)carbamate]
pIC50 [1]: 8.96
pIC50 [2]: 7.51

CC(C)NC(=O)O[C@H]1CC[C@@H](c2cc(Nc3cc4c(cc3F)N(C)S(=O)(=O)C4)n[nH]2)C1 (relative stereo) [Example 300, cis-3-(3-((6-fluoro-1-methyl-2,2-dioxido-1,3-dihydrobenzo[c]isothiazol-5-yl)amino)-1H-pyrazol-5-yl)cyclopentyl isopropylcarbamate]
pIC50 [1]: 7.44
pIC50 [2]: 6.29

CC[C@H](C)NC(=O)O[C@H]1CC[C@@H](c2cc(Nc3ccc4c(c3F)CN(C3COC3)S4(=O)=O)n[nH]2)C1 (single isomer, unassigned) [Example 134a]
pIC50 [1]: 8.42
pIC50 [2]: 6.31

CN1c2ccc(Nc3cc([C@@H]4CC[C@H](OC(=O)NCC(C)(C)O)C4)[nH]n3)cc2CS1(=O)=O (relative stereo) [Example 238, cis-3-(3-((1-methyl-2,2-dioxido-1,3-dihydrobenzo[c]isothiazol-5-yl)amino)-1H-pyrazol-5-yl)cyclopentyl(2-hydroxy-2-methylpropyl)carbamate]
pIC50 [1]: 7.80
pIC50 [2]: 6.82

COCC(C)NC(=O)O[C@H]1CC[C@@H](c2cc(Nc3ccc4c(c3F)CN(C3CC3)S4(=O)=O)n[nH]2)C1 (relative stereo) [Example 361, cis-3-(3-((2-cyclopropyl-4-fluoro-1,1-dioxido-2,3-dihydrobenzo[d]isothiazol-5-yl)amino)-1H-pyrazol-5-yl)cyclopentyl(1-methoxypropan-2-yl)carbamate]
pIC50 [1]: 8.08
pIC50 [2]: 6.46

C[C@@H](CO)NC(=O)O[C@H]1CC[C@@H](c2cc(Nc3ccc4c(c3F)CNS4(=O)=O)n[nH]2)C1 (single isomer, unassigned) [Example 328a]
pIC50 [1]: 8.00
pIC50 [2]: 6.50

CC(C)NC(=O)O[C@H]1CC[C@@H](c2cc(Nc3ccc4c(c3F)CN(CC(O)CO)S4(=O)=O)nn2CC(O)CO)C1 (relative stereo) [Example 72, cis-3-(1-(2,3-dihydroxypropyl)-3-((2-(2,3-dihydroxypropyl)-4-fluoro-1,1-dioxido-2,3-dihydrobenzo[d]isothiazol-5-yl)amino)-1H-pyrazol-5-yl)cyclopentyl isopropylcarbamate]
pIC50 [1]: 5.23
pIC50 [2]: < 5.00
